Data taken from patent US10609926B2, “Synergistic herbicidal composition” (JIANGSU ROTAM CHEMISTRY CO., LTD, priority 2016, dated 2020).

Test system: gramineous weeds, broadleaf weeds and sedge weeds
Test: Post-emergence weed control efficacy test (potted plants, stem and leaf treatment; Colby evaluation)
Type: in vivo
Excerpt: The desired efficacy of the combination of three active compounds can be calculated through “Colby formula” as follows (S. R. Colby, “Calculating Synergistic and Antagonistic Responses of Herbicide Combinations, Weeds 1967, 15, 20-22): if
E0 is the anticipated activity of active compounds A, B and C when used in an amount of m, n, h g/ha or concentrate of m, n, h ppm, E0=A×B×C/(100^(N-1))
If the observed actual activity E is greater than the anticipated activity (E0), then the composition has synergistic effect.
If the observed actual efficiency of weed control (E) through the biology test is greater than the anticipated value (E0) as calculated via Colby's equation, then it represents that the efficacy of herbicidal composition is greater than the sum of efficacy of each component, which means the composition has synergistic effect.
Use stem and leaf treatment for potted grown plant(NY/T 1155.4-2006): fill a plastic pot (6 cm height, 9 cm diameter) with a quantity of soil and sow 15 to 20 seeds of monocotyledonous weeds and dicotyledonous weeds in the plastic pot, cover it with 0.5 to 1 cm thick of fine soil and then put it in greenhouse for cultivation. When weeds grow to the 2 to 4 leave stage, conduct the stem and leaf spray treatment with 1 mL herbicidal solution on each pot and repeat four times for each treatment and leave some pots untreated as control group. Keep the treated pots in a greenhouse for cultivation and observe the growing status of target weeds periodically. Conduct the visual test on the target weeds regarding the damage symptoms and growth inhibition effect after 21 days. Weigh up the fresh weight above the ground or plant fresh weight and evaluate the toxicity of the herbicidal formulation on target weeds based on the fresh weight inhibition rate of the target.
Prepare the following formulations according to specific weight percentages: 1. Pyroxasulfone; 2. Topramezone; 3 Atrazine; 4. Pyroxasulfone+Topramezone; 5. Pyroxasulfone+Atrazine; 6. Topramezone+Atrazine; 7. Pyroxasulfone+Topramezone+Atrazine. After that, dilute above formulations with water to obtain diluted formulations.
Conduct visual assessment the damage symptom and growth inhibition status of target weeds after 21 days. Weigh up the fresh weight above the ground and calculate the inhibition rate of fresh weight (%).
Anticipated effects of the special combined three active components can be calculated through so called “Colby formula”. If the actual efficiency of weed control observed during the biology test exceeds the anticipated value […] calculated by Colby's formula, then it represents that the efficacy of herbicidal composition is greater than the sum of efficacy of each component, which means the composition has synergistic effect.
The synergistic herbicidal composition of present invention has conducted test on the following important harmful plants (gramineous weeds, broadleaf weeds, sedge weeds) with wide herbicidal spectrum: Echinochloa oryzicola, Digitaria spp., Stellaria media, Amaranthus retroflexus, Fallopia (ex Polygonum) Convolvulus, Abuthilon theophrasti, Sagittariatrifolia, Oriental Waterplantain Rhizome, Herb of Pygmy Arrowhead, Monochoria korsakowii, Lindernia procumbens, Solanum nigrum L., Scirpus juncoides Roxb, Cyperus difformis L., Chenopodium alum L., Avena fatua L. and Galium aparine L. var. tenerum Gren. et (Godr.) Rebb.

SMILES | Actual survival rate (application rate 1 g/ha) | Actual survival rate (application rate 50 g/ha) | Actual survival rate (application rate 100 g/ha) | Actual survival rate (application rate 5 g/ha) | Actual survival rate (application rate 10 g/ha) | Actual survival rate (application rate 25 g/ha)
CCNc1nc(Cl)nc(NC(C)C)n1 [Atrazine, 2-chloro-4-ethylamino-6-isopropylamino-1,3,5-triazine] | 100% | 100% | 67% |  |  | 
Cn1nc(C(F)(F)F)c(CS(=O)(=O)C2=NOC(C)(C)C2)c1OC(F)F [Pyroxasulfone, 3-[5-(difluoromethoxy)-1-methyl-3-(trifluoromethyl)pyrazol-4-ylmethylsulfonyl]-4,5-dihydro-5,5-dimthyl-1,2-oxazole] | 89% |  |  | 78% | 60% | 
Cc1c(C(=O)c2cnn(C)c2O)ccc(S(C)(=O)=O)c1C1=NOCC1 [Topramezone, [3-(4,5-dihydro-3-isoxazolyl)-2-methyl-4-(methylsulfonyl)phenyl](5-hydroxy-1-methyl-1H-pyrazol-4-yl)methanone] | 87.8% | 12.8% |  |  |  | 24.5%
